Holding throughout (type): biochemical
Test [1] addresses T1, KRAS G12D (Homo sapiens, UniProt P01116, G12D).
T1 construct: made in house; host or cells: E. coli, e.g. BL21 (DE3)
Briefly: HTRF KRAS-SOS1 interaction assay, KRAS G12D. Conditions: binned ≤2 μM / >2 μM, read-out: Inhibition of KRAS G12D (IC50). The gist of the method: (§1)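 Read-out: HTRF ratio 665/620 nm after ≥10 min incubation of compound with GST-KRAS/anti-GST-Eu and His-hSOS1/anti-6His-XL665. Duplicate dose series, 10 μM down to 0.01 μM. Buffer HEPES pH 7.4, NaCl, DTT, BSA, Igepal.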

The target of test [2] is T2, KRAS WT (Homo sapiens, UniProt P01116).
T2 construct: made in house; host or cells: E. coli, e.g. BL21 (DE3)
Briefly: HTRF KRAS-SOS1 interaction assay, wildtype KRAS. Conditions: binned ≤2 μM / >2 μM, read-out: Inhibition of KRAS WT (IC50). The gist of the method:
as §1

Test [3] deals with T3, KRAS G12V (Homo sapiens, UniProt P01116, G12V).
T3 construct: made in house; host or cells: E. coli, e.g. BL21 (DE3)
Briefly: HTRF KRAS-SOS1 interaction assay, KRAS G12V. To be noted: binned ≤2 μM / >2 μM, read-out: Inhibition of KRAS G12V (IC50). The gist of the method: as §1
In general terms: Time-resolved FRET reads energy transfer from a long-lived donor to a nearby acceptor.

For test [4], the target named is T4, KRAS G12S (Homo sapiens, UniProt P01116, G12S).
T4 construct: made in house; host or cells: E. coli, e.g. BL21 (DE3)
Briefly: HTRF KRAS-SOS1 interaction assay, KRAS G12S. Conditions: binned ≤2 μM / >2 μM, read-out: Inhibition of KRAS G12S (IC50). A digest of the protocol:
as §1

18 compounds from patent US12668600B2 (Kumquat Biosciences Inc., priority 2023, dated 2026) can be followed below.

Where only a bound is given, the exact number is not on record here.

T4 sequence (P01116 1-188 isoform P01116-2 G12S): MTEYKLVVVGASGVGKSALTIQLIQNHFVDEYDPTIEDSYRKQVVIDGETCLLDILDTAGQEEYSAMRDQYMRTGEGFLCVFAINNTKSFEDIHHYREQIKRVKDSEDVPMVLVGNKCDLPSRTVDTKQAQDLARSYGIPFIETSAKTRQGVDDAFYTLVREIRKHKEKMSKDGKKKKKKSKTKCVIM
T3 sequence (P01116 1-188 isoform P01116-2 G12V): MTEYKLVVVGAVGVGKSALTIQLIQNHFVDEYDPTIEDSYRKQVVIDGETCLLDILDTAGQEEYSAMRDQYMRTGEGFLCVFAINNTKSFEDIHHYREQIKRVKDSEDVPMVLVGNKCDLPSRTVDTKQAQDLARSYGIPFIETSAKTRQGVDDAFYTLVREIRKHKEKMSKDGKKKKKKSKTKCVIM
T2 sequence (P01116 1-188 isoform P01116-2): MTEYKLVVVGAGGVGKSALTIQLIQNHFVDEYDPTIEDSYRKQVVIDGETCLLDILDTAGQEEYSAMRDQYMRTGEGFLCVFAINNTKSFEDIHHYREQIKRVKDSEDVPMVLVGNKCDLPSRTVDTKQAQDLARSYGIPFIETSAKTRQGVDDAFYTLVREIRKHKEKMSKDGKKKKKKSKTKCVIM
T1 sequence (P01116 1-188 isoform P01116-2 G12D): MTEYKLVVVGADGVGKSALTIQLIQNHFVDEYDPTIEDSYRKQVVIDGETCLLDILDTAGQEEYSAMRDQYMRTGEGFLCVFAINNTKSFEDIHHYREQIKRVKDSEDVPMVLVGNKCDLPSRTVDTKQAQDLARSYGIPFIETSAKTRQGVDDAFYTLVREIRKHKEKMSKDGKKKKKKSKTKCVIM

With `CCN1CC[C@H](OC)[C@H]1[C@H](C)Oc1nc2c3c(c(C(F)(F)F)c(-c4ccc(F)c5sc(N)c(C#N)c45)c(F)c3n1)OCCN2[C@H](C)c1cccnc1N` [Compound 896, 2-amino-4-(4-((R)-1-(2-aminopyridin-3-yl)ethyl)-2-((S)-1-((2R,3S)-1-ethyl-3-methoxypyrrolidin-2-yl)ethoxy)-10-fluoro-8-(trifluoromethyl)-5,6-dihydro-4H-[1,4]oxazepino[5,6,7-de]quinazolin-9-yl)-7-fluorobenzo[b]thiophene-3-carbonitrile], the concentration for half-maximal inhibition (IC50) in test [1], in test [2], in test [3] and in test [4] was at most 2000 nM in each case.
Consider `CC(=O)c1c(F)ccc2cc(O)cc(-c3nc4c5c(nc(OC[C@@]67CCCN6C[C@H](F)C7)nc5c3F)N(C(C)c3cccnc3N)CCO4)c12` (mixture of isomers) [Compound 744], for which the half-inhibitory concentration (IC50) in test [1], in test [2], in test [3] and in test [4] was at most 2000 nM throughout.
For `C[C@H](Oc1nc2c3c(c(Cl)c(-c4ccc(F)c5sc(N)c(C#N)c45)c(F)c3n1)OCCN2[C@H](C)c1cccnc1N)[C@@H]1CCCN1C` (single isomer, unassigned) [Compound 633], the IC50 in test [1], in test [2], in test [3] and in test [4] was at most 2000 nM each time.
For `CCON=C1CN2CCC[C@@]2(COc2nc3c4c(c(Cl)c(-c5ccc(F)c6sc(N)c(C#N)c56)c(F)c4n2)OCCN3[C@H](C)c2cccnc2N)C1` (single isomer, unassigned) [Compound 700], the IC50 in test [1], in test [2], in test [3] and in test [4] was at most 2000 nM throughout.
Regarding `C[C@H](c1cccnc1N)N1CCOc2c(C(F)(F)F)c(-c3ccc(F)c4sc(N)c(C#N)c34)c(F)c3nc(OCC4(CN5[C@H](C)COC[C@@H]5C)CC4)nc1c23` (single isomer, unassigned) [Compound 719], the IC50 in test [1], in test [2], in test [3] and in test [4] was over 2000 nM in each case.
Regarding `C[C@H](c1cccnc1N)N1CCOc2nc(-c3ccc(F)c4sc(N)c(C#N)c34)c(F)c3nc(OC[C@@H]4CCCN4C)nc1c23` (single isomer, unassigned) [Compound 651], the IC50 in test [1], in test [2], in test [3] and in test [4] was at most 2000 nM each time.
Take `N#Cc1c(N)sc2c(F)ccc(-c3c(C(F)(F)F)c4c5c(nc(OC[C@@]67CCCN6C[C@H](F)C7)nc5c3F)N([C@H](CCC3CC(F)(F)C3)c3cccnc3N)CCO4)c12` (single isomer, unassigned) [Compound 689]: the IC50 in test [1] was over 2000 nM; in test [2], at most 2000 nM; in test [3], at most 2000 nM; in test [4], at most 2000 nM.
Regarding `N#Cc1c(N)sc2c(F)ccc(-c3c(C(F)(F)F)c4c5c(nc(OC[C@@]67CCCN6C[C@@]6(CC6(F)F)C7)nc5c3F)N([C@@H](c3cccnc3N)C(F)F)CCO4)c12` (single isomer, unassigned) [Compound 897], the IC50 in test [1], in test [2], in test [3] and in test [4] was over 2000 nM in each case.
In the case of `C[C@H](c1cccnc1N)N1CCOc2c(C(F)(F)F)c(-c3ccc(F)c4sc(N)c(C#N)c34)c(F)c3nc(OCC4(CN5CCC(=C(F)F)CC5)CC4)nc1c23` (single isomer, unassigned) [Compound 693], the IC50 in test [1], in test [2], in test [3] and in test [4] was at most 2000 nM throughout.
For `C[C@H](c1cccnc1N)N1CCOc2c(C(F)(F)F)c(-c3ccc(F)c4sc(N)c(C#N)c34)c(F)c3nc(OC[C@@]45CCCN4CC(C#N)C5)nc1c23` (stereo partly drawn) [Compound 852, (7aS)-7a-(((9-(2-amino-3-cyano-7-fluorobenzo[b]thiophen-4-yl)-4-((R)-1-(2-aminopyridin-3-yl)ethyl)-10-fluoro-8-(trifluoromethyl)-5,6-dihydro-4H-[1,4]oxazepino[5,6,7-de]quinazolin-2-yl)oxy)methyl)hexahydro-1H-pyrrolizine-2-carbonitrile], the 50% inhibitory concentration (IC50) in test [1] was over 2000 nM; in test [2], at most 2000 nM; in test [3], over 2000 nM; in test [4], over 2000 nM.
Regarding `C=C1CN2CC(=C)CC2(COc2nc3c4c(c(C(F)(F)F)c(-c5ccc(F)c6sc(N)c(C#N)c56)c(F)c4n2)OCCN3[C@H](C)c2cccnc2N)C1` (single isomer, unassigned) [Compound 775], the IC50 in test [1], in test [2], in test [3] and in test [4] was at most 2000 nM throughout.
For the compound `CC(c1cccnc1N)N1c2nc(OC[C@@]34CCCN3C[C@H](F)C4)nc3c(F)c(-c4ccc(F)c5sc(N)c(C#N)c45)c(Cl)c(c23)OC[C@@H]1C(F)F` (mixture of isomers) [Compound 790, 2-amino-4-((5R)-4-(1-(2-aminopyridin-3-yl)ethyl)-8-chloro-5-(difluoromethyl)-10-fluoro-2-(((2R,7aS)-2-fluorotetrahydro-1H-pyrrolizin-7a(5H)-yl)methoxy)-5,6-dihydro-4H-[1,4]oxazepino[5,6,7-de]quinazolin-9-yl)-7-fluorobenzo[b]thiophene-3-carbonitrile], the concentration for half-maximal inhibition (IC50) in test [1], in test [2], in test [3] and in test [4] was at most 2000 nM throughout.
Take `C[C@H](c1cccnc1N)N1CCOc2c(C3CC3)c(-c3ccc(F)c4sc(N)c(C#N)c34)c(F)c3nc(OC[C@@]45CCCN4C[C@H](F)C5)nc1c23` (single isomer, unassigned) [Compound 727]: the concentration for half-maximal inhibition (IC50) in test [1], in test [2], in test [3] and in test [4] was at most 2000 nM throughout.
For `C[C@H](c1cccnc1N)N1CCOc2c(Cl)c(-c3ccc(F)c4sc(N)c(C#N)c34)c(F)c3nc(OC[C@@]45CCCN4CC(CP(C)(C)=O)C5)nc1c23` (mixture of isomers) [Compound 839, 2-amino-4-(4-((R)-1-(2-aminopyridin-3-yl)ethyl)-8-chloro-2-(((7aS)-2-((dimethylphosphoryl)methyl)tetrahydro-1H-pyrrolizin-7a(5H)-yl)methoxy)-10-fluoro-5,6-dihydro-4H-[1,4]oxazepino[5,6,7-de]quinazolin-9-yl)-7-fluorobenzo[b]thiophene-3-carbonitrile], the 50% inhibitory concentration (IC50) in test [1], in test [2], in test [3] and in test [4] was at most 2000 nM each time.
Consider `C=CC[C@H](c1cccnc1N)N1CCOc2c(Cl)c(-c3ccc(F)c4sc(N)c(C#N)c34)c(F)c3nc(OC[C@@]45CCCN4C[C@H](F)C5)nc1c23` (atropisomer, axis not shown; (aS)) [Compound 683, 2-amino-4-((R)-4-((R)-1-(2-aminopyridin-3-yl)but-3-en-1-yl)-8-chloro-10-fluoro-2-(((2R,7aS)-2-fluorotetrahydro-1H-pyrrolizin-7a (5H)-yl)methoxy)-5,6-dihydro-4H-[1,4]oxazepino[5,6,7-de]quinazolin-9-yl)-7-fluorobenzo[b]thiophene-3-carbonitrile], for which the half-maximal inhibitory concentration (IC50) in test [1], in test [2], in test [3] and in test [4] was at most 2000 nM in each case.
On to `C[C@H](c1cc(Cl)cnc1N)N1CCOc2c(C(F)(F)F)c(-c3ccc(F)c4sc(N)c(C#N)c34)c(F)c3nc(OCC4(CN5CCC(F)CC5)CC4)nc1c23` [Compound 830, 2-amino-4-(4-((R)-1-(2-amino-5-chloropyridin-3-yl)ethyl)-10-fluoro-2-((1-((4-fluoropiperidin-1-yl)methyl)cyclopropyl)methoxy)-8-(trifluoromethyl)-5,6-dihydro-4H-[1,4]oxazepino[5,6,7-de]quinazolin-9-yl)-7-fluorobenzo[b]thiophene-3-carbonitrile], for which the IC50 in test [1], in test [2], in test [3] and in test [4] was at most 2000 nM throughout.
`C[C@H](c1cccnc1N)N1CCOc2c(C(F)(F)F)c(-c3ccc(F)c4sc(N)c(C#N)c34)c(F)c3nc(OCC4(CN5CCC(F)(F)CC5)CC4)nc1c23` [Compound 778, 2-amino-4-(4-((R)-1-(2-aminopyridin-3-yl)ethyl)-2-((1-((4,4-difluoropiperidin-1-yl)methyl)cyclopropyl)methoxy)-10-fluoro-8-(trifluoromethyl)-5,6-dihydro-4H-[1,4]oxazepino[5,6,7-de]quinazolin-9-yl)-7-fluorobenzo[b]thiophene-3-carbonitrile]: the half-maximal inhibitory concentration (IC50) in test [1], in test [2], in test [3] and in test [4] was at most 2000 nM each time.
In the case of `N#Cc1c(N)sc2c(F)ccc(-c3c(C(F)(F)F)c4c5c(nc(OC[C@@]67CCCN6C[C@H](F)C7)nc5c3F)N([C@H](CCC3CC3)c3cccnc3N)CCO4)c12` (single isomer, unassigned) [Compound 606], the IC50 in test [1], in test [2], in test [3] and in test [4] was over 2000 nM throughout.

Broadly, the IC50 is the midpoint of a concentration-inhibition curve.
